{"source": "patent US9724408B2", "about": "“Compositions and methods for activating stimulator of interferon gene-dependent signalling” (ADURO BIOTECH, INC., priority 2013, dated 2017)", "key": {"[1]": {"molecular_target": "T1, hSTING (REF) (Homo sapiens, UniProt Q86WV6)", "T1 construct": "GFP; expressed in transfected cells; plasmid from the Vance Laboratory, UC Berkeley", "T1 sequence (Q86WV6 whole entry)": "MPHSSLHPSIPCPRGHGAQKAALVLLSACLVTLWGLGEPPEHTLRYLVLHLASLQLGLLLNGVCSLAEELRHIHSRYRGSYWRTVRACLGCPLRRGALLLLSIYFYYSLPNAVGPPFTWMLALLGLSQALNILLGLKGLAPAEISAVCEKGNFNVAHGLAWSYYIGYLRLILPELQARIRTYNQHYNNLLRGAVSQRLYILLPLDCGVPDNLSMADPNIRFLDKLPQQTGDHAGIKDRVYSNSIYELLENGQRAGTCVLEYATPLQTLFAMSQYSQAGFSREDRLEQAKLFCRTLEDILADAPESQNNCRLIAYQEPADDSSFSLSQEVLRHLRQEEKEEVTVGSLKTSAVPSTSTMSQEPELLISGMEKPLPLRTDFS", "assay": "IFNβ-LUC reporter in HEK293T cells expressing hSTING (REF)", "assay_type": "cell-based", "settings": "10 μM, digitonin permeabilization, 6 hrs, FIG. 14", "protocol": "MSCV2.2 plasmids encoding hSTING(REF)-GFP, hSTING(WT)-GFP, hSTING(HAQ)-GFP, hSTING(Q)-GFP and mSTING(WT)-GFP were obtained from the Vance Laboratory at UC Berkeley. hSTING(AQ)-GFP was derived from hSTING(Q)-GFP using a QuickChange Site-Directed Mutagenesis kit (Stratagene). […] 1×10^4 HEK293T STING cells were seeded in 96-well plates and transiently transfected (using Lipofectamine 2000) with 50 ng of a human IFN-β reporter plasmid (pLuc-IFN-β) expressing the human IFN-β promoter upstream of a luciferase reporter and 10 ng of TK-renilla for normalization. 24 hours later, cells were stimulated with native and synthetic CDN derivative molecules using digitonin permeabalization to ensure uniform uptake. Each STING cell line was stimulated with 10 μM of cyclic [G(3′,5′)pA(3′,5′)p] (cGAMP), cyclic [G(2′,5′)pA(3′,5′)p] […] (RR-CDA), cyclic [A(2′,5′)pA(3′,5′)p] […] (RR-CDG), cyclic [G(2′,5′)pG(3′,5′)p] […] (ML RR-CDG) in 25 ul digitonin buffer (50 mM HEPES, 100 mM KCL, 3 mM MgCl2, 0.1 mM DTT, 85 mM Sucrose, 0.2% BSA, 1 mM ATP, 0.1 mM GTP, 10 ug/ml digitonin). After 20 min, the stimulation mixtures were removed and 200 ul of standard RPMI media was added. After stimulation for 6 hrs, cell lysates were prepared and reporter gene activity measured using the Dual Luciferase Assay System (Promega) on a Spectramax M3 luminometer."}, "[2]": {"system": "4T1 mammary carcinoma cells", "assay": "4T1 mammary carcinoma flank tumor model, intratumoral CDN", "assay_type": "in vivo, BALB/c mice", "protocol": "Either CT26 colon carcinoma cells (1×10^5 cells in 100 μL PBS) or 4T1 mammary carcinoma cells (1×10^5 cells in 100 μL PBS) were implanted subcutaneously on the flanks of 6-8 week old female BALB/c mice (8 mice per group). Treatments began when tumors reached a volume of approximately 75 mm^3, which was approximately day 14 post tumor implantation. The compounds Rp, Rp dithio cyclic [A(2′,5′)pA(3′,5′)p] (ML RR-CDA) or Rp, Rp dithio cyclic [G(2′,5′)pG(3′,5′)p] (ML RR-CDG) compounds (25 μg in a total volume of 40 μL HBSS), or HBSS vehicle control, and Rp, Rp dithio cyclic [A(2′,5′)pA(3′,5′)p] (ML RR-CDA) (50 μg in a total volume of 40 μL HBSS) or HBSS vehicle control, were administered by subcutaneous injection into the center of the tumor using a 27 gauge needle. Injections were repeated every three days, for a total of three intratumoral injections.\nTo determine whether CDN derivative molecules induce effective and durable anti-tumor immunity in an alternate tumor model, 6-8 week old female BALB/c mice (8 mice per group) were implanted with 4T1 mammary carcinoma cells (1×10^5 cells in 100 μL PBS). […] On day 35 post tumor implantation, surviving mice and age-matched naïve control mice were implanted on the contralateral flank with either CT26 or 4T1 (both 1×10^5 cells in 100 μL PBS) tumor cells (4 mice per group), and monitored for tumor growth."}, "[3]": {"system": "4T1", "assay": "Re-challenge of surviving mice with 4T1 tumor cells on the contralateral flank", "assay_type": "in vivo, BALB/c mice", "protocol": "To determine whether the synthetic derivative CDN molecules elicit durable and effective anti-tumor T-cell immunity, 6-8 week old female BALB/c mice (8 mice per group) were implanted with CT26 colon carcinoma cells (1×10^5 cells in 100 μL PBS). Mice were treated with Rp, Rp dithio cyclic [A(2′,5′)pA(3′,5′)p] (ML RR-CDA) compound ([…] in a total volume of 40 μL HBSS) or HBSS vehicle control, and tumor growth was monitored as per previous example. Mice were bled on day 18 post tumor implantation and PBMCs were isolated by Ficoll gradient (Miltenyi Biotech). 5×10^4 PBMCs were stimulated overnight in an IFNγ ELISpot assay with media alone (unstimulated), or with 1 μM of the endogenous H-2 L^d-restricted tumor rejection antigen AH1 peptide in the presence of 1×10^5 naïve splenocytes as feeder cells. IFN-γ ELISpot plates were developed and quantified using a CTL plate reader and ImmunoSpot software. On day 55 post tumor implantation, surviving mice and age-matched naïve control mice were implanted on the contralateral flank with either CT26 or 4T1 (both 1×10^5 cells in 100 μL PBS) tumor cells (4 mice per group), and monitored for tumor growth. […]"}, "[4]": {"system": "B16 melanoma cells", "assay": "Abscopal model, B16 flank tumor plus intravenous B16 lung colonization", "assay_type": "in vivo, C57BL/6 mice", "settings": "three injections", "protocol": "To determine whether the synthetic CDN derivative molecules promote abscopal anti-tumor immunity in an alternative tumor model and mouse genetic background, 6-8 week old female C57BL/6 mice (8 mice per group) were implanted with B16 melanoma cells (5×10^4 cells in 100 μL PBS) in the right flank. One week later mice were implanted intravenously with 1×10^5 B16 melanoma cells to colonize the lung, along with a group of naïve age-matched control mice. When the subcutaneous flank tumor reached approximately 75 mm^3 on day 13, mice were treated intratumorally with Rp, Rp dithio cyclic [A(2′,5′)pA(3′,5′)p] (ML RR-CDA) (50 μg in a total volume of 40 μL HBSS) or HBSS vehicle control, for three injections as per previous protocol. On day 28 post subcutaneous tumor implantation (day 21 post i.v. implantation), mice were euthanized and lungs were harvested and fixed (10% Neutral Buffered Formalin), and the number of lung tumor nodules counted using a dissecting microscope."}}, "data": [{"smiles": "Nc1nc2c(ncn2[C@@H]2O[C@@H]3CO[P@@](O)(=S)O[C@@H]4[C@H](O)[C@@H](CO[P@@](O)(=S)O[C@H]3[C@H]2O)O[C@H]4n2cnc3c(=O)[nH]c(N)nc32)c(=O)[nH]1", "note": "[ML RR-CDG, dithio-[RP,RP]-cyclic-[G(2′,5′)pG(3′,5′)p]]", "values": [{"measurement": "IFNβ reporter response of hSTING (REF)", "setting": "[1]", "value": "responsive to stimulation"}]}, {"smiles": "Nc1ncnc2c1ncn2[C@@H]1O[C@@H]2COP(O)(=S)O[C@@H]3C(O)[C@@H](COP(O)(=S)O[C@H]2[C@H]1O)O[C@H]3n1cnc2c(N)ncnc21", "note": "(stereo partly shown) [ML RR-CDA, dithio-[RP, RP]-cyclic-[A(2′,5′)pA(3′,5′)p]]", "values": [{"measurement": "inhibition of tumor growth of established 4T1 mammary carcinomas", "setting": "[2]; 50 μg intratumoral, FIG. 22A", "value": "completely inhibited tumor growth of established 4T1 mammary carcinomas"}, {"measurement": "inhibition of tumor growth of established 4T1 mammary tumors", "setting": "[2]; intratumoral, every three days, three injections, 8 mice per group, FIG. 19C", "value": "completely inhibited tumor growth of all established 4T1 mammary tumors"}, {"measurement": "protection against 4T1 re-challenge, survivors of 4T1 tumors", "setting": "[3]; re-challenge on day 35 post tumor implantation, FIG. 22B", "value": "complete protection"}, {"measurement": "protection against 4T1 re-challenge, survivors of CT26 tumors", "setting": "[3]; re-challenge on day 55 post tumor implantation, FIG. 21C", "value": "not inhibiting growth of the 4T1 tumor type"}, {"measurement": "growth of distal lung tumor nodules", "setting": "[4]; 50 μg into the flank tumor, lungs on day 28, FIG. 24B, 24C", "value": "significantly inhibited the growth of distal lung tumor nodules"}, {"measurement": "tumor growth of the primary flank tumor", "setting": "[4]; 50 μg intratumoral, P<0.001, FIG. 24A", "value": "significantly inhibited tumor growth of the primary flank tumor"}]}]}
